Laboratory results taken from US20250197351A1, “C4-CARBOXYLIC ACID-S[…] DERIVATIVES AND METHODS OF USING” (priority 2022, published 2025).
Where “and” joins values, the source holds several entries; their conditions need not be identical. Equal values may be shown once.

Tests used:
[1] = molecular target: T1, 5-HT2A receptor (5-HT2AR) (Mus musculus, UniProt P35363); test: Drug-induced Head Twitch Response (HTR); format: in vivo; conditions: 1 mg/kg i.p., 15-to-30-minute window post-drug, relative to vehicle
T1 construct: host or cells: C57BL/6 mice, in vivo (neuronal receptor)

5-HT1A receptor = molecular target: T2, 5-HT1A receptor (Homo sapiens, UniProt P08908); test: cAMP-Glo assay of 5-HT1A receptor modulation, CHO-K1/5-HT1A/Ga15 (+5-HT1A) vs CHO-K1/Ga15 (−5-HT1A) cells; format: cell-based; conditions: +5-HT1A vs −5-HT1A CHO-K1 cells; 4 μM forskolin; increasing ligand concentration
T2 construct: host or cells: CHO-K1 (co-expressing Ga15)
T2 sequence (P08908 1-422): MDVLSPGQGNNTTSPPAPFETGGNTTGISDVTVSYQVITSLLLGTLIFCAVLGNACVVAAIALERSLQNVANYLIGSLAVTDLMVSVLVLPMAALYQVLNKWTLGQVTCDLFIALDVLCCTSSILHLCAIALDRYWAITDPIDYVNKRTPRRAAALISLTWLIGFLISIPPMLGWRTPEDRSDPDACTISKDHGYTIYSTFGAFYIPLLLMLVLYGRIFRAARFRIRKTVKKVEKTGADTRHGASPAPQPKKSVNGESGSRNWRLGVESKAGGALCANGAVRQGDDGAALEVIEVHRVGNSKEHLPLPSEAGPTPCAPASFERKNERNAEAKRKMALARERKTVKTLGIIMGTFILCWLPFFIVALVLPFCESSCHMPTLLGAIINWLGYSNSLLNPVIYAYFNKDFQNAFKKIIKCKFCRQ

[2] = Mouse pharmacokinetic (PK) study, parent compound and psilocin metabolite in plasma; format: in vivo; conditions: for Plasma concentration of C(XX): LLOQ 0.25 ng/mL; for Plasma concentration: parent C(XX), BLQ = below 0.25 ng/mL; for AUC0-tlast/Dose of C(XX) / Cmax/Dose of C(XX) / AUC0-inf/Dose of C(XX): plasma
Description: Briefly, the procedure was as follows. […] 19, 2022.

5-HT2A receptor = 5-HT2A receptor (Homo sapiens, UniProt P28223); test: [3H]ketanserin competition binding assay (SPA); conditions: 1 nM [3H]ketanserin; control ligands
[3] = Metabolic stability / psilocin release in serum; format: in vitro ADME; conditions: 10% human AB serum
Description: (§1) A fundamental evaluation in drug development is the assessment of absorption, distribution, metabolism, excretion, and pharmacokinetics (ADME/PK) (Eddershaw et al., 2000, Drug Discovery Today 5(9): 409-414). […] Drug stability upon exposure to human liver microsomes and liver S9 cellular fractions is a common in vitro assay to approximate in vivo, liver-based drug metabolism (Richardson et al., 2016 Drug Metabolism Letters 10:83-90). First-pass metabolism is also often approximated in vitro using intestinal microsome and cellular S9 fractions (Hatley et al., 2017, Biopharmaceuticals & Drug Disposition, 38(2):155-160). […] Supernatants were analyzed for the presence of candidate prodrugs (parent molecule) and psilocin (the predicted metabolite) using Orbitrap LC-MS (Thermo Scientific) using previously described methods (Menéndez-Perdomo et al., 2021, J Mass Spectrom, 56: e4683). […] Assay concentrations (M) of both parent ‘prodrug’ molecule and psilocin metabolite, as quantified through LC-MS using routine standard curve procedures, were plotted as functions of assay time (minutes). The metabolism rate (T1/2) was determined from the metabolism curve plot using the one phase decay feature of GraphPad PRISM software (Version 9.2.0). The quantity of parent prodrug at time zero was set as 100%. […]

[4] = Stability in enzyme-free control buffer; format: in vitro ADME; conditions: 50 mM potassium phosphate buffer pH 7.4
Description: A fundamental evaluation in drug development is the assessment of absorption, distribution, metabolism, excretion, and pharmacokinetics (ADME/PK) (Eddershaw et al., 2000, Drug Discovery Today 5(9): 409-414). […] Drug stability upon exposure to human liver microsomes and liver S9 cellular fractions is a common in vitro assay to approximate in vivo, liver-based drug metabolism (Richardson et al., 2016 Drug Metabolism Letters 10:83-90). First-pass metabolism is also often approximated in vitro using intestinal microsome and cellular S9 fractions (Hatley et al., 2017, Biopharmaceuticals & Drug Disposition, 38(2):155-160). […] Supernatants were analyzed for the presence of candidate prodrugs (parent molecule) and psilocin (the predicted metabolite) using Orbitrap LC-MS (Thermo Scientific) using previously described methods (Menéndez-Perdomo et al., 2021, J Mass Spectrom, 56: e4683). […] Assay concentrations (M) of both parent ‘prodrug’ molecule and psilocin metabolite, as quantified through LC-MS using routine standard curve procedures, were plotted as functions of assay time (minutes). The metabolism rate (T1/2) was determined from the metabolism curve plot using the one phase decay feature of GraphPad PRISM software (Version 9.2.0). The quantity of parent prodrug at time zero was set as 100%.

[5] = Metabolic stability / psilocin release in liver fractions; format: in vitro ADME, human; conditions: HLM and HLS9; 2.5 μM; up to 2 hours
Description: as §1

[6] = 3 mg/kg oral C(XX), individual mice, 3 mg/kg
[7] = 10 mg/kg oral C(XX), individual mice, 10 mg/kg

5-HT2A receptor, sequence (P28223 whole entry): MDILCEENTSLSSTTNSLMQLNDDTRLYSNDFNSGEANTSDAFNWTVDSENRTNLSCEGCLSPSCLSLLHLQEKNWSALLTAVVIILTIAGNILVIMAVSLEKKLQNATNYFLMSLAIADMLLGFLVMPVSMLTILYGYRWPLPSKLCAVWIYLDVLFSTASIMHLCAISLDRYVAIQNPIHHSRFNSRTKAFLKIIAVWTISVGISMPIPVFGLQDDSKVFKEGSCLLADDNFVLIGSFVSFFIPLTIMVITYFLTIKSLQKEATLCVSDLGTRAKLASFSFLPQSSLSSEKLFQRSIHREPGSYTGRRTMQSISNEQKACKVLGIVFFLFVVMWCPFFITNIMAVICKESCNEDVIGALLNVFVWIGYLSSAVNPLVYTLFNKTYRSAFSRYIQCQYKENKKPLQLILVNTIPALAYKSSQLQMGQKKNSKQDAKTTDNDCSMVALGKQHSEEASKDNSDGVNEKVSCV
T1 sequence (P35363 whole entry): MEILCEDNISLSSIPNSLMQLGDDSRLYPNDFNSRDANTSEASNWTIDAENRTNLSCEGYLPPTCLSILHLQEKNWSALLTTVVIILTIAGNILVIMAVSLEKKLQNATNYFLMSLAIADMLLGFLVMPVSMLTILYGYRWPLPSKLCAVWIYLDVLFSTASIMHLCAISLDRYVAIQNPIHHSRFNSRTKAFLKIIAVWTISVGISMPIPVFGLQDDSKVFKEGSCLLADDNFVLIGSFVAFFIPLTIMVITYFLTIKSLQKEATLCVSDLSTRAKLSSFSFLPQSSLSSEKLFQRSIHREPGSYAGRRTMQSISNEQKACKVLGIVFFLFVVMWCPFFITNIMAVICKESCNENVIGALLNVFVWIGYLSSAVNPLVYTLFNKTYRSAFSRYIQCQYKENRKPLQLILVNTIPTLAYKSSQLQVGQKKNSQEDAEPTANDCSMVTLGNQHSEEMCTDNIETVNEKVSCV

CN(C)CCc1c[nH]c2cccc(OC(=O)c3cccc4c3OCCO4)c12 [C(XX)]
Head Twitch Response (HTR) incidence [1]: Elevated incidences of HTR | 5-HT1A receptor modulation (reduction of forskolin-induced cAMP) (5-HT1A receptor): significant receptor modulation | Plasma concentration of psilocin ([2]; 1 mg/kg i.v. C(XX), 8 h, individual mice, LLOQ 0.5 ng/mL): BLQ | Plasma concentration of psilocin ([2]; 1 mg/kg oral C(XX), 24 h, individual mice, LLOQ 0.5 ng/mL): BLQ | Plasma concentration of C(XX) ([2]; 3 mg/kg oral C(XX), 0.25 h, individual mice): 1.72 ng/mL | Plasma concentration of C(XX) ([2]; 3 mg/kg oral C(XX), 0.5 h, individual mice): 1.13 ng/mL | Plasma concentration of C(XX) ([2]; 3 mg/kg oral C(XX), 4 h, individual mice): No Peak (2×) and BLQ | Plasma concentration of C(XX) ([2]; 3 mg/kg oral C(XX), 6 h, individual mice): No Peak and BLQ (2×) | Plasma concentration of C(XX) ([2]; 3 mg/kg oral C(XX), 8 h, individual mice): No Peak and BLQ (2×) | Plasma concentration of C(XX) ([2]; 3 mg/kg oral C(XX), 24 h, individual mice): No Peak | Plasma concentration of psilocin ([2]; 3 mg/kg oral C(XX), 24 h, individual mice, LLOQ 0.5 ng/mL): BLQ | F of C(XX) ([2]; 3 mg/kg oral C(XX), individual mice): 0.816% and 1.08% and 0.962% | F of C(XX) ([2]; 3 mg/kg oral C(XX), mean): 0.953 ± 0.132% | Plasma concentration of C(XX) ([2]; 10 mg/kg oral C(XX), 0.25 h, individual mice): 10.3 ng/mL | Plasma concentration of C(XX) ([2]; 10 mg/kg oral C(XX), 2 h, individual mice): 1.08 ng/mL | Plasma concentration of C(XX) ([2]; 10 mg/kg oral C(XX), 4 h, individual mice): BLQ | Plasma concentration of C(XX) ([2]; 10 mg/kg oral C(XX), 6 h, individual mice): BLQ | Plasma concentration of C(XX) ([2]; 10 mg/kg oral C(XX), 8 h, individual mice): BLQ | Plasma concentration of C(XX) ([2]; 10 mg/kg oral C(XX), 24 h, individual mice): No Peak | Plasma concentration of psilocin ([2]; 10 mg/kg oral C(XX), 24 h, individual mice, LLOQ 0.5 ng/mL): BLQ | Plasma concentration ([2]; 1 mg/kg i.v., 2 h, each animal, 1 mg/kg): 1.14 ng/mL | Plasma concentration ([2]; 1 mg/kg i.v., 6 h, each animal): BLQ | Plasma concentration ([2]; 1 mg/kg i.v., 8 h, each animal, 1 mg/kg): BLQ and No (2×) | Plasma concentration ([2]; 1 mg/kg p.o., 2 h, each animal): BLQ | Plasma concentration ([2]; 1 mg/kg p.o., 4 h, each animal): BLQ | Plasma concentration ([2]; 1 mg/kg p.o., 6 h, each animal, 1 mg/kg): No Peak (2×) and BLQ | Plasma concentration ([2]; 1 mg/kg p.o., 8 h, each animal, 1 mg/kg): No Peak (2×) and BLQ | Plasma concentration ([2]; 1 mg/kg p.o., 24 h, each animal): No Peak | AUC0-tlast/Dose ([2]; parent compound in plasma, 1 mg/kg i.v., each animal, 1 mg/kg): 48.0 kg·ng·h/mL/mg | AUC0-tlast/Dose of C(XX) ([2]; 1 mg/kg i.v. C(XX), mean): 52.8 ± 8.30 kg·ng·h/mL/mg | Cmax/Dose of C(XX) ([2]; 1 mg/kg p.o. C(XX), mean): 0.620 ± 0.0996 kg·ng/mL/mg | AUC0-inf/Dose of C(XX) [2, 6]: 0.433 kg·ng·h/mL/mg and 0.572 kg·ng·h/mL/mg and 0.510 kg·ng·h/mL/mg | AUC0-tlast/Dose of C(XX) [2, 6]: 0.406 kg·ng·h/mL/mg and 0.494 kg·ng·h/mL/mg and 0.474 kg·ng·h/mL/mg | Cmax/Dose of C(XX) [2, 6]: 0.497 kg·ng/mL/mg and 0.573 kg·ng/mL/mg and 0.643 kg·ng/mL/mg | AUC0-inf/Dose of C(XX) ([2]; 3 mg/kg oral C(XX), mean): 0.505 ± 0.0700 kg·ng·h/mL/mg | AUC0-tlast/Dose of C(XX) ([2]; 3 mg/kg oral C(XX), mean): 0.458 ± 0.0457 kg·ng·h/mL/mg | Cmax/Dose of C(XX) ([2]; 3 mg/kg oral C(XX), mean): 0.571 ± 0.0734 kg·ng/mL/mg | AUC0-tlast/Dose of C(XX) [2, 7]: 0.565 kg·ng·h/mL/mg and 0.499 kg·ng·h/mL/mg and 0.916 kg·ng·h/mL/mg | Cmax/Dose of C(XX) [2, 7]: 0.299 kg·ng/mL/mg and 0.912 kg·ng/mL/mg and 1.03 kg·ng/mL/mg | AUC0-tlast/Dose of C(XX) ([2]; 10 mg/kg oral C(XX), mean): 0.660 ± 0.224 kg·ng·h/mL/mg | Cmax/Dose of C(XX) ([2]; 10 mg/kg oral C(XX), mean): 0.747 ± 0.392 kg·ng/mL/mg

CN(C)CCc1c[nH]c2cccc(O)c12 [psilocin, reference compound]
Binding at 5-HT2A receptor in competition assay (5-HT2A receptor): binding | 5-HT1A receptor modulation (reduction of forskolin-induced cAMP) (5-HT1A receptor): reduction in cAMP levels

CN(C)CCc1c[nH]c2cccc(OP(=O)(O)O)c12 [psilocybin, reference compound]
Metabolic stability and conversion to psilocin in serum [3]: stable in serum with no conversion to psilocin | Detection of parent compound in plasma after i.v. administration ([2]; mouse, 1 mg/kg i.v.): only detectable in i.v. administered animals | Plasma concentration of parent compound ([2]; mouse, 1 mg/kg i.v., 0.25 h, individual animals, BLQ = below 0.5 ng/mL (C(V)), 1 mg/kg): 3.32 ng/mL and 8.95 ng/mL and 27.2 ng/mL | Plasma concentration of parent compound ([2]; mouse, 1 mg/kg i.v., 0.5 h, individual animals, BLQ = below 0.5 ng/mL (C(V)), 1 mg/kg): No Peak and 2.35 ng/mL and 6.21 ng/mL | Plasma concentration of parent compound ([2]; mouse, 1 mg/kg i.v., 1 h, individual animals, 1 mg/kg): No Peak | Plasma concentration of parent compound ([2]; mouse, 1 mg/kg i.v., 2 h, individual animals): No Peak | Plasma concentration of parent compound ([2]; mouse, 1 mg/kg i.v., 4 h, individual animals): No Peak | Plasma concentration of parent compound ([2]; mouse, 1 mg/kg i.v., 6 h, individual animals): No Peak | Plasma concentration of parent compound ([2]; mouse, 1 mg/kg i.v., 8 h, individual animals, 1 mg/kg): No Peak | Detection of parent compound in plasma after oral administration ([2]; mouse, orally administered, any dose (1, 3, 10 mg/kg)): not detectable | Plasma concentration of psilocin ([2]; mouse, prodrug 1 mg/kg p.o. (psilocybin: 1.56 mg/kg), 24 h, individual animals, BLQ = below 0.2 ng/mL): BLQ | Plasma concentration of psilocin ([2]; mouse, prodrug 3 mg/kg p.o., 24 h, individual animals, BLQ = below 0.2 ng/mL): BLQ | Stability in assay buffer [4]: stability of psilocybin was confirmed in assay buffer | Metabolic stability and conversion to psilocin in liver fractions [5]: stable in liver fractions with no conversion to psilocin

N[C@@H](Cc1c[nH]c2ccccc12)C(=O)O [tryptophan, reference compound]
Binding at 5-HT2A receptor in competition assay (5-HT2A receptor): no binding | 5-HT1A receptor modulation (reduction of forskolin-induced cAMP) (5-HT1A receptor): no reduction in cellular cAMP levels
